Measured values published in ChEMBL document CHEMBL2375343, “(4-Phenoxyphenyl)tetrazolecarboxamides and related compounds as dual inhibitors of fatty acid amide hydrolase (FAAH) and monoacylglycerol lipase (MAGL)” (Eur J Med Chem, 2013).
The source made the active and inactive calls. The rule behind the calls is not given here.

Tests used:
[1] = target: T1, Monoglyceride lipase (Homo sapiens) (UniProt Q99685); experiment: Inhibition of human recombinant MAGL-mediated 1,3-dihydroxypropan-1-yl 4-pyren-1-ylbutanoate conversion to 4-pyren-1-ylbutanoic acid at 10 uM preincubated for 15 mins measured after 45 mins by HPLC analysis relative to control
T1 sequence (whole entry): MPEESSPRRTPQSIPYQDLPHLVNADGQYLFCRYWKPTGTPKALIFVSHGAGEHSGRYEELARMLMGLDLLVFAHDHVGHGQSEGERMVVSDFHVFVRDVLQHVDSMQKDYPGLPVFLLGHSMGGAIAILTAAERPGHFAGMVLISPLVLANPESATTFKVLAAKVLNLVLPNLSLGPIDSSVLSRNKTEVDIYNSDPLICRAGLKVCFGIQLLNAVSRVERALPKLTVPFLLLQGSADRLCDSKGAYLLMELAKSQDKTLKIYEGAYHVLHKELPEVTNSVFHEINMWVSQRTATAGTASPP

[2] = target: T2, Fatty-acid amide hydrolase 1 (Rattus norvegicus) (UniProt P97612); experiment: Inhibition of FAAH in Sprague-Dawley rat brain microsomes assessed as N-(2-hydroxyethyl)-4-pyren-1-ylbutanamide conversion to 4-pyren-1-ylbutanoic acid at 10 uM preincubated for 10 mins measured after 45 mins by HPLC analysis relative to control
T2 sequence (whole entry): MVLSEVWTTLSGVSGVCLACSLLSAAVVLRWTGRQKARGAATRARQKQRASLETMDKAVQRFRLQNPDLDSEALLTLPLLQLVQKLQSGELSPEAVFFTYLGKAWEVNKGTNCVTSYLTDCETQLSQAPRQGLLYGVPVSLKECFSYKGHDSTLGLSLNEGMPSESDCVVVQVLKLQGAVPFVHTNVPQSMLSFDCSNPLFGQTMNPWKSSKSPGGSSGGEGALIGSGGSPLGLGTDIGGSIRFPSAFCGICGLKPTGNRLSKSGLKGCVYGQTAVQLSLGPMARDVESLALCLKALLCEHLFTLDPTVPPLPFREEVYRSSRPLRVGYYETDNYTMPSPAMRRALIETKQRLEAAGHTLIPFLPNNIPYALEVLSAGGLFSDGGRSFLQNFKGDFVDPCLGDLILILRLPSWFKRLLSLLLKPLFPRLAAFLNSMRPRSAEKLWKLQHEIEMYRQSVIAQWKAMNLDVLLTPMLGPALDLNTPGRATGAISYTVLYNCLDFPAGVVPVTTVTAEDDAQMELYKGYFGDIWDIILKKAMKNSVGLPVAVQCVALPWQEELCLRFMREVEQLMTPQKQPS

[3] = target: T3, Fatty-acid amide hydrolase 1 (Rattus norvegicus, UniProt P97612); experiment: Inhibition of FAAH in Sprague-Dawley rat brain microsomes assessed as N-(2-hydroxyethyl)-4-pyren-1-ylbutanamide conversion to 4-pyren-1-ylbutanoic acid preincubated for 10 mins measured after 45 mins by HPLC analysis
T3 sequence (P97612 whole entry): T2 sequence (whole entry)

Monoglyceride lipase [4] = target: T4, Monoglyceride lipase (Homo sapiens, UniProt Q99685); experiment: Inhibition of MAGL (unknown origin) using 4-nitrophenylacetate as substrate
T4 sequence (Q99685 whole entry): T1 sequence (whole entry)

Monoglyceride lipase [5] = target: T4, Monoglyceride lipase; experiment: Inhibition of human recombinant MAGL-mediated 1,3-dihydroxypropan-1-yl 4-pyren-1-ylbutanoate conversion to 4-pyren-1-ylbutanoic acid preincubated for 15 mins measured after 45 mins by HPLC analysis
[6] = target: T5, Fatty-acid amide hydrolase 1 (Homo sapiens, UniProt O00519); experiment: Inhibition of FAAH (unknown origin)
T5 sequence (O00519 whole entry): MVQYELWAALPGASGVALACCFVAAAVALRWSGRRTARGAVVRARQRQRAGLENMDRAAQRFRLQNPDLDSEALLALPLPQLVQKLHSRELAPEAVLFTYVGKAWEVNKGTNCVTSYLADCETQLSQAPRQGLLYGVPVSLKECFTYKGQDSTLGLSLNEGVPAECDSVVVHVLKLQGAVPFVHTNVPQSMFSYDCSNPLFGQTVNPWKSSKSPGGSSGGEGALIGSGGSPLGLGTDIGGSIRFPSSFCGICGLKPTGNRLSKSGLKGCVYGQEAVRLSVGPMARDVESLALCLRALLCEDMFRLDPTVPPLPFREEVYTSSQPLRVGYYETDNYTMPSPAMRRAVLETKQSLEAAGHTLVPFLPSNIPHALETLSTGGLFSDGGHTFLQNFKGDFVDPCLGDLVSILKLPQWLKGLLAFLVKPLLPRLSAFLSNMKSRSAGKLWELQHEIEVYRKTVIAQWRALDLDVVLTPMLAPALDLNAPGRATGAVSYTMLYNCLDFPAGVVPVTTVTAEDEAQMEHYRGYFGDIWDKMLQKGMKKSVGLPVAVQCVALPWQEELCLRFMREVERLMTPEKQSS

Monoglyceride lipase [7] = target: T4, Monoglyceride lipase; experiment: Inhibition of MAGL (unknown origin)
Sus scrofa = species: Sus scrofa; experiment: Inhibition of cytosolic phospholipase A2alpha in porcine platelets assessed as 1-stearoyl-2-arachidonoyl-sn-glycero-3-phosphocholine conversion to arachidonic acid at 10 uM by HPLC analysis
[8] = Metabolic stability in Wistar rat liver S9 fraction at 20 uM after 30 mins by HPLC analysis; assay type: ADME, subcellular; conditions: read-out: Stability
Monoglyceride lipase [9] = target: T4, Monoglyceride lipase; experiment: Inhibition of human MAGL expressed in Escherichia coli using 6-methoxy-4-methylcoumarin ester as substrate after 3 hrs by mass spectroscopic analysis
Monoglyceride lipase [10] = target: T6, Monoglyceride lipase (Rattus norvegicus, UniProt Q8R431); experiment: Inhibition of MAGL in rat cerebellar membranes; assay type: cell membranes, Membrane
T6 sequence (Q8R431 whole entry): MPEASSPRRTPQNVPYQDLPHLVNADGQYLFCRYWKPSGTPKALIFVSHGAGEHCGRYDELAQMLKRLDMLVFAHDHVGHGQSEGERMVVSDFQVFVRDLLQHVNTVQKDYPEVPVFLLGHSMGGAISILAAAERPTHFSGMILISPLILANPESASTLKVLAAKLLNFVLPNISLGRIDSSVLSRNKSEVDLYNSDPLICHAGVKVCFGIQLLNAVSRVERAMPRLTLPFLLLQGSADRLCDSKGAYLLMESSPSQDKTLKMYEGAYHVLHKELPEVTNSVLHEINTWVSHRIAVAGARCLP

[11] = Selectivity ratio of IC50 for human recombinant MAGL to IC50 for FAAH in Sprague-Dawley rat brain microsomes; conditions: Microsome
Monoglyceride lipase [12] = target: T6, Monoglyceride lipase; experiment: Inhibition of rat MAGL expressed in monkey COS7 cells; assay type: cell-based, COS-7

With `O=C1N=C(O)S/C1=C\c1ccc(Oc2ccccc2)cc1` the inhibition [1] was “inactive” and the inhibition [2] was “inactive”.

`Cc1ccc(C)n1Cc1ccc(-c2nnn(C(=O)N(C)C)n2)cc1` showed an IC50 [3] of 140 nM.

`CN(C)C(=O)n1nnc(-c2ccc(Oc3ccc(F)cc3)cc2)n1` gave an IC50 [3] of 14 nM.

`COc1nn(-c2ccc(NC(=O)OCc3ccccc3)c(C)c2)c(=O)o1` showed an IC50 [3] of 1300 nM, an IC50 (Monoglyceride lipase [4]) of 400 nM and an IC50 (Monoglyceride lipase [5]) of 480 nM. For the same compound, the IC50 [6] was 76 nM and the IC50 (Monoglyceride lipase [7]) was 92 nM.

For `COc1nn(-c2ccc(Oc3ccccc3)cc2)c(=O)o1`, the IC50 [3] was 720 nM, the IC50 (Monoglyceride lipase [5]) was 310 nM and the IC50 [6] was 65 nM. For the same compound, the IC50 (Monoglyceride lipase [7]) was 78 nM.

For `CN(C)C(=O)n1nnnc1Cc1ccc(Oc2ccccc2)cc1`, the IC50 [3] was 6 nM and the inhibition (Sus scrofa) was “inactive”.

`CCN(CC)C(=O)n1nnc(-c2ccc(Oc3ccccc3)cc2)n1` showed a remaining at 0.5 h, 20 µM [8] of 0% and an IC50 [3] of 37 nM.

For `CN(C)C(=O)n1nnc(-c2ccc(-n3ccc4ccccc43)cc2)n1`, the IC50 [3] was 12 nM.

In the case of `CCCCC/C=C\C/C=C\C/C=C\C/C=C\CCCCN1C(=O)C=CC1=O`, the IC50 (Monoglyceride lipase [9]) is reported as 2800 nM, the IC50 (Monoglyceride lipase [10]) is reported as 140 nM and the inhibition [1] is reported as “inactive”. It also gave an inhibition [2] of 38%.

For `CN(C)C(=O)n1nnc(-c2ccc(Oc3ccc(Cl)c(Cl)c3)cc2)n1`, the IC50 [3] was 11 nM.

In the case of `O=C1C=CC(=O)N1c1ccc(Oc2ccccc2)cc1`, the IC50 [3] is reported as 5300 nM.

With `CN(C)C(=O)n1nnnc1Cc1ccc(-c2ccccc2)cc1` the IC50 [3] was 5 nM, the inhibition (Sus scrofa) was “inactive” and the IC50 (Monoglyceride lipase [5]) was 290 nM. The Ratio IC50 [11] was 60.

Compound `O=C1C=CC(=O)N1Cc1ccc(Oc2ccccc2)cc1` has an inhibition [1] of 44%, an IC50 [3] of 4900 nM and an IC50 (Monoglyceride lipase [5]) of over 10000 nM.

`CN(C)C(=O)n1nnc(-c2ccc(Cn3cccc3)cc2)n1` gave an IC50 [3] of 11 nM.

Compound `Cc1ccc(C)n1-c1ccc(-c2nnn(C(=O)N(C)C)n2)cc1` has an IC50 [3] of 9 nM.

`Cc1ccc(Oc2ccc(-c3nnn(C(=O)N(C)C)n3)cc2)cc1` showed an IC50 [3] of 24 nM.

`CN(C)C(=O)n1nnc(-c2ccc(Oc3cccc(F)c3)cc2)n1` showed an IC50 [3] of 10 nM.

For `O=C(NC1CCCCC1)N1CC(c2ccc(Oc3ccccc3)cc2)OC1=O` (configuration not stated), the inhibition [1] was “inactive” and the inhibition [2] was “inactive”.

In the case of `O=c1[nH]c(-c2ccc(Oc3ccccc3)cc2)no1`, the inhibition [1] is reported as “inactive” and the inhibition [2] is reported as “inactive”.

`COc1cccc(Oc2ccc(-c3nnn(C(=O)N(C)C)n3)cc2)c1` showed an IC50 [3] of 15 nM.

For `Cc1cccc(Oc2ccc(-c3nnn(C(=O)N(C)C)n3)cc2)c1`, the IC50 [3] was 13 nM.

With `CC(=O)c1cc(C)n(-c2ccc(-c3nnn(C(=O)N(C)C)n3)cc2)c1C` the IC50 [3] was 9 nM.

With `O=C(Oc1ccc([N+](=O)[O-])cc1)N1CCC(C(O)(c2ccc3c(c2)OCO3)c2ccc3c(c2)OCO3)CC1` the IC50 (Monoglyceride lipase [12]) was 25 nM and the inhibition [2] was “inactive”.

`CN(C)C(=O)n1nnc(-c2ccc(-n3cccn3)cc2)n1` gave an IC50 [3] of 8 nM.

`CN(C)C(=O)n1nnc(-c2ccc(Cn3ccc4ccccc43)cc2)n1` showed an IC50 [3] of 88 nM.

Work on `Cc1cc(C(=O)c2ccccc2)c(C)n1-c1ccc(-c2nnn(C(=O)N(C)C)n2)cc1` yielded an IC50 [3] of 16 nM.

In the case of `O=C(CCCCCc1ccccc1)c1nc2ncccc2o1`, the inhibition [1] is reported as “inactive” and the IC50 [3] is reported as 4 nM.

With `CN(C)C(=O)n1nnc(-c2ccc(Oc3cccc(Cl)c3)cc2)n1` the IC50 [3] was 9 nM.

For `Cc1cc(C(=O)c2ccc(-c3ccccc3)cc2)c(C)n1-c1ccc(-c2nnn(C(=O)N(C)C)n2)cc1`, the IC50 [3] was 40 nM.

Work on `COc1ccc(Oc2ccc(-c3nnn(C(=O)N(C)C)n3)cc2)cc1` yielded an IC50 [3] of 13 nM.

With `O=C1NCC(c2ccc(Oc3ccccc3)cc2)O1` (configuration not stated) the inhibition [1] was “inactive” and the inhibition [2] was “inactive”.

With `CN(C)C(=O)n1nnc(Cc2ccc(-c3ccccc3)cc2)n1` the IC50 [3] was 12 nM, the inhibition (Sus scrofa) was “inactive” and the IC50 (Monoglyceride lipase [5]) was 6 nM.

With `CC(C)N(C(=O)n1nnc(-c2ccc(Oc3ccccc3)cc2)n1)C(C)C` the remaining at 0.5 h, 20 µM [8] was 27%, the inhibition [1] was “inactive” and the IC50 [3] was over 10000 nM. For the same compound, the inhibition [2] was 17%.

With `CN(C)C(=O)n1nnc(Cc2ccc(Oc3ccccc3)cc2)n1` the IC50 [3] was 9 nM and the inhibition (Sus scrofa) was “inactive”.

`CCCCCC(=O)c1cc(C)n(-c2ccc(-c3nnn(C(=O)N(C)C)n3)cc2)c1C` gave an IC50 [3] of 11 nM.

In the case of `CN(C)C(=O)n1nnc(-c2ccc(-n3cccc3)cc2)n1`, the IC50 [3] is reported as 5 nM.

With `CN(C)C(=O)n1nnc(-c2ccc(Oc3ccccc3)cc2)n1` the remaining at 0.5 h, 20 µM [8] was 0%, the IC50 [3] was 12 nM and the inhibition (Sus scrofa) was “inactive”.

For `CN(C)C(=O)n1nnnc1-c1ccc(Oc2ccccc2)cc1`, the IC50 [3] was 7 nM and the inhibition (Sus scrofa) was “inactive”.

Compound `CN(C)C(=O)n1nnc(-c2ccc(Oc3ccc(Cl)cc3)cc2)n1` has an IC50 [3] of 16 nM.

`Cc1cc(C(=O)C(C)(C)C)c(C)n1-c1ccc(-c2nnn(C(=O)N(C)C)n2)cc1` gave an IC50 [3] of 29 nM.
